Results published in patent US10722514B2 (FLX Bio, Inc., priority 2017, dated 2020).
Counter-ions that a name gives are not always drawn. Like-named read-outs stand apart in the source and are kept apart here.

Biological target: T1, recombinant full-length USP7 (Homo sapiens, UniProt Q93009)
T1 construct: A 25 μl reaction volume containing recombinant full-length USP7 (62 pM)
Test: USP7-mediated ubiquitin-rhodamine cleavage assay
Type: biochemical
Conditions: recombinant full-length USP7 62 pM, ubiquitin-rhodamine 100 nM, 1 hour reaction at room temperature
How it was run: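 Full-length recombinant USP7 (62 pM) in 20 mM HEPES pH 7.3, 150 mM NaCl, 1 mM TCEP, 125 μg/ml BSA, 1% DMSO, preincubated with compound 30 min at RT. Ubiquitin-rhodamine (100 nM final) cleaved 1 h at RT in the dark, stopped with acetic acid; rhodamine fluorescence read, IC50 by 4-parameter nonlinear fit.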

[1] = 30-minute pre-incubation, read-out: Potency (USP7 IC50)
[2] = 30-minute incubation with compound, read-out: Potency: USP7 IC50

T1 sequence (Q93009 whole entry): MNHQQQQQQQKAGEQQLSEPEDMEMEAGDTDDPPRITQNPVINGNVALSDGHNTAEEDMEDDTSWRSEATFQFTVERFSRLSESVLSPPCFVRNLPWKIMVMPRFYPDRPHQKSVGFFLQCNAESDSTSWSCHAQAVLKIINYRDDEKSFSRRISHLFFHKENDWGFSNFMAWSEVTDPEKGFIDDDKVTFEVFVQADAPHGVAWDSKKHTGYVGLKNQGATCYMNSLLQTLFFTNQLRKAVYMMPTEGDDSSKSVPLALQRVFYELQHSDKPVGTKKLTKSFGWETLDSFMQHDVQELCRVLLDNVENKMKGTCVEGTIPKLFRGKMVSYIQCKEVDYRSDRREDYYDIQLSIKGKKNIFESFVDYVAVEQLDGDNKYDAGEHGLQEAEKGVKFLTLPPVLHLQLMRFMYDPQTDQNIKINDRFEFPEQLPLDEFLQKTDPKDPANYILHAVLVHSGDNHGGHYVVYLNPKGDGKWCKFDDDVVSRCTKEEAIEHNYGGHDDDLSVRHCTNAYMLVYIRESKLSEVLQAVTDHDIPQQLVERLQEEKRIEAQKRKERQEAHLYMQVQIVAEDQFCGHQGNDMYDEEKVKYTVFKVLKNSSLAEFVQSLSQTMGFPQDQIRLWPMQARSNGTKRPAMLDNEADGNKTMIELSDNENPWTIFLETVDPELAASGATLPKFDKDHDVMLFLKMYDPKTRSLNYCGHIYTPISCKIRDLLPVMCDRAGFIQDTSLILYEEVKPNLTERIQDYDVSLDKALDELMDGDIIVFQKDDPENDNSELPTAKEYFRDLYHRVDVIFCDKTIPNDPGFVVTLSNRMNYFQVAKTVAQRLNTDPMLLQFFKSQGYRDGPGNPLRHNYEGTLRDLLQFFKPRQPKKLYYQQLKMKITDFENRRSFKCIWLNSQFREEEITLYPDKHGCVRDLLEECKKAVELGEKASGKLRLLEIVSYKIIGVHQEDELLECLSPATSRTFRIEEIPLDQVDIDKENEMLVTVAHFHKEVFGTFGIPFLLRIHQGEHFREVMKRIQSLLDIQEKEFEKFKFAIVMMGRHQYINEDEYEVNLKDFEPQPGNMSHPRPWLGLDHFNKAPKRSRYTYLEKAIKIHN

SMILES	IC50 [1] [nM]	IC50 [2] [nM]
Cc1cc(Cl)cc(-c2ccnc3cc(Cn4c(=O)ccn(C)c4=O)sc23)c1OC1CNCCC1(F)F (stereo not shown) [Example 514, 3-[[7-[5-chloro-2-[(4,4-difluoro-3-piperidyl)oxy]-3-methyl-phenyl]thieno[3,2-b]pyridin-2-yl]methyl]-1-methyl-pyrimidine-2,4-dione; 2,2,2-trifluoroacetic acid]	< 1000	–
Cc1cc(Cl)cc(-c2ccnc3cc(CN4C(=O)C(C)C(C)C4=O)sc23)c1O[C@H]1CCCNC1 (stereo partly drawn) [Example 296, 1-[[7-[5-chloro-3-methyl-2-[[(3S)-3-piperidyl]oxy]phenyl]thieno[3,2-b]pyridin-2-yl]methyl]-3,4-dimethyl-pyrrolidine-2,5-dione; 2,2,2-trifluoroacetic acid]	–	< 1000
Cc1cc(Cl)cc(-c2ccnc3cc(CN4C(=O)CCC4=O)sc23)c1O[C@@H]1CN(C)C[C@@H]1F [Example 124, 1-((7-(5-Chloro-2-(((3R,4S)-4-fluoro-1-methylpyrrolidin-3-yl)oxy)-3-methylphenyl)thieno[3,2-b]pyridin-2-yl)methyl)pyrrolidine-2,5-dione]	–	< 1000
Cc1cc(Cl)cc(-c2ccnc3cc(Cn4c(=O)ccn(CC(F)(F)F)c4=O)sc23)c1OCC1(F)CNC1 [Example 641, 3-[[7-[5-chloro-2-[(3-fluoroazetidin-3-yl)methoxy]-3-methyl-phenyl]thieno[3,2-b]pyridin-2-yl]methyl]-1-(2,2,2-trifluoroethyl)pyrimidine-2,4-dione]	< 1000	–
COC[C@H]1C[C@H](Oc2c(C)cc(Cl)cc2-c2ccnc3cc(Cn4c(=O)ccn(CC(F)(F)F)c4=O)sc23)CN1 [Example 650, 3-[[7-[5-chloro-2-[(3S,5R)-5-(methoxymethyl)pyrrolidin-3-yl]oxy-3-methyl-phenyl]thieno[3,2-b]pyridin-2-yl]methyl]-1-(2,2,2-trifluoroethyl)pyrimidine-2,4-dione]	< 1000	–
CCN1C[C@H](F)[C@H](Oc2c(C)cc(Cl)cc2-c2ccnc3cc(CN4C(=O)CCC4=O)sc23)C1 [Example 299, 1-[[7-[5-chloro-2-[(3R,4S)-1-ethyl-4-fluoro-pyrrolidin-3-yl]oxy-3-methyl-phenyl]thieno[3,2-b]pyridin-2-yl]methyl]pyrrolidine-2,5-dione]	–	< 1000
Cc1cc(Cl)cc(-c2ccnc3cc(Cn4c(=O)ccn(C)c4=O)sc23)c1OC1CCN(C2COC2)CC1 [Example 255, 3-((7-(5-Chloro-3-methyl-2-((1-(oxetan-3-yl)piperidin-4-yl)oxy)phenyl)thieno[3,2-b]pyridin-2-yl)methyl)-1-methylpyrimidine-2,4(1H,3H)-dione]	–	< 1000
Cc1cc(Cl)cc(-c2ccnc3cc(Cn4c(=O)ccn(CC(F)(F)F)c4=O)sc23)c1O[C@@H]1CNCC[C@H]1C [Example 342, 3-[[7-[5-chloro-3-methyl-2-[[(3S,4R)-4-methyl-3-piperidyl]oxy]phenyl]thieno[3,2-b]pyridin-2-yl]methyl]-1-(2,2,2-trifluoroethyl)pyrimidine-2,4-dione]	–	< 1000
Cc1cc(Cl)cc(-c2ccnc3cc(Cn4c(=O)ccn(C)c4=O)sc23)c1O[C@H]1CNCC[C@H]1C [Example 588, 3-[[7-[5-chloro-3-methyl-2-[[(3R,4R)-4-methyl-3-piperidyl]oxy]phenyl]thieno[3,2-b]pyridin-2-yl]methyl]-1-methyl-pyrimidine-2,4-dione; 2,2,2-trifluoroacetic acid]	< 1000	–
Cc1cc(Cl)cc(-c2ccnc3cc(CN4C(=O)C5CC5C4=O)sc23)c1O[C@@H]1CCN(C)C[C@@H]1C (stereo partly drawn) [Example 326, 3-[[7-[5-chloro-2-[[(3S,4R)-1,3-dimethyl-4-piperidyl]oxy]-3-methyl-phenyl]thieno[3,2-b]pyridin-2-yl]methyl]-3-azabicyclo[3.1.0]hexane-2,4-dione]	–	< 1000
Cc1cc(Cl)cc(-c2ccnc3cc(CO)sc23)c1O[C@@H]1CN[C@@H](C)C1 [Example 60, (7-(5-Chloro-3-methyl-2-(((3S,5S)-5-methylpyrrolidin-3-yl)oxy)phenyl)thieno[3,2-b]pyridin-2-yl)methanol]	–	10000 to 30000
Cc1cc(Cl)cc(-c2ccnc3ccsc23)c1OC1CCC(=O)NC1 (stereo not shown) [Example 198, 5-(4-Chloro-2-methyl-6-(thieno[3,2-b]pyridin-7-yl)phenoxy)piperidin-2-one]	–	> 30000
Cc1cc(Cl)cc(-c2ncnc3cc(CN4C(=O)CCN(C)C4=O)sc23)c1O[C@H]1CCCNC1 [Example 252, (S)-3-((4-(5-Chloro-3-methyl-2-(piperidin-3-yloxy)phenyl)thieno[3,2-d]pyrimidin-6-yl)methyl)-1-methyldihydropyrimidine-2,4(1H,3H)-dione]	–	< 1000
O=C1CCC(=O)N1Cc1cc2nccc(-c3cc(Cl)cc(C(F)F)c3O[C@H]3CCCNC3)c2s1 [Example 432, 1-[[7-[5-chloro-3-(difluoromethyl)-2-[[(3S)-3-piperidyl]oxy]phenyl]thieno[3,2-b]pyridin-2-yl]methyl]pyrrolidine-2,5-dione dihydrochloride]	< 1000	–
Cc1cc(Cl)cc(-c2ccnc3cc(CN4C(=O)C5CC5C4=O)sc23)c1OC1CCNCC1 (stereo not shown) [Example 233, 3-((7-(5-Chloro-3-methyl-2-(piperidin-4-yloxy)phenyl)thieno[3,2-b]pyridin-2-yl)methyl)-3-azabicyclo[3.1.0]hexane-2,4-dione]	–	< 1000
Cc1cc(Cl)cc(-c2ccnc3cc(Cn4c(=O)ccn(C)c4=O)sc23)c1OC1CC2CNC1C2 (stereo not shown) [Example 418]	< 1000	–
Cc1cc(Cl)cc(-c2ccnc3c(F)c(CN4C(=O)CCC4=O)sc23)c1O[C@@H]1CNC[C@@H]1F [Example 65, 1-((7-(5-Chloro-2-(((3R,4S)-4-fluoropyrrolidin-3-yl)oxy)-3-methylphenyl)-3-fluorothieno[3,2-b]pyridin-2-yl)methyl)pyrrolidine-2,5-dione]	–	< 1000
Cc1cc(Cl)cc(-c2ccnc3cc(Cn4c(=O)c(C)cn(C)c4=O)sc23)c1O[C@H]1CCCNC1 [Example 478, 3-[[7-[5-chloro-3-methyl-2-[[(3S)-3-piperidyl]oxy]phenyl]thieno[3,2-b]pyridin-2-yl]methyl]-1,5-dimethyl-pyrimidine-2,4-dione; 2,2,2-trifluoroacetic acid]	< 1000	–
CCN1CCC[C@H](Oc2c(C)cc(Cl)cc2-c2ccnc3cc(Cn4c(=O)ccn(C)c4=O)sc23)CC1 [Example 493, 3-[[7-[5-chloro-2-[(4S)-1-ethylazepan-4-yl]oxy-3-methyl-phenyl]thieno[3,2-b]pyridin-2-yl]methyl]-1-methyl-pyrimidine-2,4-dione]	< 1000	–
Cc1cc(Cl)cc(-c2ccnc3cc(CN4C(=O)C5CC5C4=O)sc23)c1O[C@H]1CCCNC1 (stereo partly drawn) [Example 244, 3-((7-(5-Chloro-3-methyl-2-(((S)-piperidin-3-yl)oxy)phenyl)thieno[3,2-b]pyridin-2-yl)methyl)-3-azabicyclo[3.1.0]hexane-2,4-dione]	–	< 1000
Cc1cc(Cl)cc(-c2ccnc3cc(CCN4C(=O)CCS4(=O)=O)sc23)c1OC1CCNCC1 [Example 219, 2-(2-(7-(5-chloro-3-methyl-2-(piperidin-4-yloxy)phenyl)thieno[3,2-b]pyridin-2-yl)ethyl)isothiazolidin-3-one 1,1-dioxide]	–	10000 to 30000
Cc1cc(Cl)cc(-c2ccnc3cc(Cn4c(=O)ccn(C)c4=O)sc23)c1OCCN [Example 552, 3-[[7-[2-(2-aminoethoxy)-5-chloro-3-methyl-phenyl]thieno[3,2-b]pyridin-2-yl]methyl]-1-methyl-pyrimidine-2,4-dione; 2,2,2-trifluoroacetic acid]	< 1000	–
CCN1CC[C@H](Oc2c(C)cc(Cl)cc2-c2ccnc3cc(Cn4c(=O)ccn(C)c4=O)sc23)CC1(C)C [Example 491, 3-[[7-[5-chloro-2-[[(4S)-1-ethyl-2,2-dimethyl-4-piperidyl]oxy]-3-methyl-phenyl]thieno[3,2-b]pyridin-2-yl]methyl]-1-methyl-pyrimidine-2,4-dione; 2,2,2-trifluoroacetic acid]	< 1000	–
Cc1cc(Cl)cc(-c2ccnc3cc(CCOC4=NS(=O)(=O)c5ccccc54)sc23)c1O[C@@H]1CNC[C@@H]1F [Example 140, 3-(2-(7-(5-Chloro-2-(((3R,4S)-4-fluoropyrrolidin-3-yl)oxy)-3-methylphenyl)thieno[3,2-b]pyridin-2-yl)ethoxy)benzo[d]isothiazole 1,1-dioxide]	–	10000 to 30000
CC[C@@H](c1cc2nccc(-c3cc(Cl)cc(C)c3OC3CCNCC3)c2s1)N1C(=O)CCC1=O [Example 256, (S)-1-(1-(7-(5-Chloro-3-methyl-2-(piperidin-4-yloxy)phenyl)thieno[3,2-b]pyridin-2-yl)propyl)pyrrolidine-2,5-dione]	–	1000 to 10000
Cc1cc(Cl)cc(-c2ccnc3cc(CO)sc23)c1O[C@@H]1C[C@H]2CC[C@@H](C1)N2 [Example 192, (7-(2-(((1R,3S,5S)-8-Azabicyclo[3.2.1]octan-3-yl)oxy)-5-chloro-3-methylphenyl)thieno[3,2-b]pyridin-2-yl)methanol]	–	1000 to 10000
Cc1cc(Cl)cc(-c2ncnc3cc(CN4C(=O)C5C(C4=O)C5(C)C)sc23)c1O[C@@H]1CCNC[C@H]1F (stereo partly drawn) [Example 352, 3-[[4-[5-chloro-2-[[(3R,4R)-3-fluoro-4-piperidyl]oxy]-3-methyl-phenyl]thieno[3,2-d]pyrimidin-6-yl]methyl]-6,6-dimethyl-3-azabicyclo[3.1.0]hexane-2,4-dione; 2,2,2-trifluoroacetic acid]	–	< 1000
Cc1cc(Cl)cc(-c2ccnc3cc(Cn4c(=O)ccn(CC(F)(F)F)c4=O)sc23)c1OCC1COCCN1 (stereo not shown) [Example 646, 3-[[7-[5-chloro-3-methyl-2-(morpholin-3-ylmethoxy)phenyl]thieno[3,2-b]pyridin-2-yl]methyl]-1-(2,2,2-trifluoroethyl)pyrimidine-2,4-dione; 2,2,2-trifluoroacetic acid]	< 1000	–
